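Assay format: 96-well plates, 48-hour exposure. GI50: concentration for 50% inhibition of growth.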 Activity calls are given as the source filed them. Cut-off read from the data, not from the text of the source: active = GI50 up to about 1.1 µM and inactive = higher.
How the values were obtained:
Assay in all cases: growth of human tumour cells (NCI), 48 h
LXFL 529 = tested on: LXFL 529
M19-MEL = tested on: M19-MEL
KM-20L2 = tested on: KM-20L2
DMS-114 = tested on: DMS-114
HOP-18 = tested on: HOP-18
DMS-273 = tested on: DMS-273
SNB-78 = tested on: SNB-78
XF498 = tested on: XF498
RXF 631 = tested on: RXF 631

Measured: GI50

COc1ccc(N2C(=O)C3C=CC(n4[nH]c(=O)n(Cc5ccccc5)c4=O)CC3C2=O)cc1 (stereo not drawn)
inactive: LXFL 529 > 100 µM | M19-MEL > 100 µM | KM-20L2 > 100 µM | DMS-114 > 100 µM | HOP-18 > 100 µM | DMS-273 > 100 µM | SNB-78 > 100 µM | XF498 > 100 µM

COc1nc(N)nc2nc[nH]c12
inactive: LXFL 529 > 800 µM | RXF 631 647 µM | M19-MEL > 500 µM | KM-20L2 > 500 µM | DMS-114 467 µM | HOP-18 360 µM | DMS-273 430 µM | SNB-78 287 µM | XF498 279 µM

CCOC1=C2N=C(Cc3ccc(F)cc3)NC2C(=O)c2ccccc21 (stereo not drawn)
inactive: LXFL 529 25.5 µM | RXF 631 15.1 µM | M19-MEL 9.44 µM | KM-20L2 40.3 µM | DMS-114 18.5 µM | DMS-273 9.71 µM | SNB-78 69 µM | XF498 > 10 µM

COC(=O)c1cccc(C(=O)OC)c1
inactive: LXFL 529 > 100 µM | HOP-18 > 100 µM | DMS-273 > 100 µM | SNB-78 > 100 µM | XF498 > 100 µM

O=C1NC2(CCCCC2)C2CCCCCC12 (stereo not drawn)
inactive: LXFL 529 > 100 µM | RXF 631 > 100 µM | KM-20L2 > 100 µM | DMS-114 > 100 µM | SNB-78 > 100 µM | XF498 > 100 µM

Cn1c2c(c3ccccc31)CCN(CCCCN1CCCCC1)C2=O
inactive: LXFL 529 > 100 µM | RXF 631 > 100 µM | M19-MEL 60.1 µM | KM-20L2 > 100 µM | HOP-18 > 100 µM | DMS-273 > 100 µM | SNB-78 43.1 µM | XF498 > 100 µM

CCOC(=O)NC(=O)c1cn(CCSCCOC(=O)NCCCCCCNC(=O)OCCSCCn2cc(C(=O)NC(=O)OCC)c(=O)[nH]c2=O)c(=O)[nH]c1=O
inactive: M19-MEL > 100 µM | KM-20L2 > 100 µM | DMS-114 > 100 µM | HOP-18 > 100 µM | DMS-273 > 100 µM | SNB-78 > 100 µM

CN(C)CCSc1nccc(-c2ccc(-c3ccnc(SCCN(C)C)n3)s2)n1
inactive: M19-MEL 9.42 µM | KM-20L2 7.36 µM | DMS-114 11.9 µM | HOP-18 27.2 µM | DMS-273 8.3 µM | SNB-78 13 µM | XF498 15.6 µM

CC1(C)C2CCC3(OCCO3)C1C(O)C2 (stereo not drawn)
inactive: LXFL 529 > 100 µM | RXF 631 > 100 µM | M19-MEL > 100 µM | KM-20L2 > 100 µM | HOP-18 > 100 µM | DMS-273 > 100 µM | SNB-78 > 100 µM | XF498 > 100 µM

CCOC(=O)CC(NC(=O)c1ccc(/N=N/N(C)C)cc1)C(=O)OCC (stereo not drawn)
inactive: LXFL 529 > 100 µM | M19-MEL > 100 µM | DMS-273 > 100 µM

— ChEMBL document CHEMBL1201862, “PubChem BioAssay data set” (2004)
